The results in this text go back to patent US12433954B2, “Methods of activating anti-CD19 chimeric antigen receptor (CAR) T cells using amphiphilic ligand conjugates comprising CAR-targeting protein sequence motifs” (Massachusetts Institute of Technology, priority 2020, dated 2025).

A word on the Kd: it is a measure of binding affinity in units of concentration. High values mean weaker binding, low ones tighter binding.

Ends that are not written are not given here.

For one assay, the target named is FMC63 IgG. As to the kind of experiment: Yeast clone staining with biotinylated FMC63 IgG, Kd from MFI (FACS). It is filed as binding, mouse. To be noted: yeast clones, 0.01-1000 nM biotinylated FMC63 IgG. The source says: In order to validate specific sequences, clones were isolated and measured for their affinity to FMC63. Specifically, a subset of mimotope clones were selected from the fixed library sequence described in Example 5.

Another assay has as its target FMC63 scFv. The assay can be described thus: Yeast clone staining with biotinylated FMC63 scFv, Kd by FACS. It is filed as binding, mouse. To be noted: yeast clones, biotinylated FMC63 scFv monomer. The protocol: FIGS. 10A & 10B provide graphs showing binding of yeast clones expressing the indicated mimotopes to biotinylated FMC63 IgG (FIG. 10A) or biotinylated FMC63 scFv (FIG. 10B) at increasing concentration (0.01-1000 nM).
Identifying specific mimotope clones of varying affinities will provide flexibility in treatments. In order to validate specific sequences, clones were isolated and measured for their affinity to FMC63. Specifically, a subset of mimotope clones were selected from the fixed library sequence described in Example 5. […] Given the FDA-approved CAR is an scFV derived from the parental IgG, mimotope binding to FMC63-scFv monomer was tested using biotinylated FMC63 scFV to measure Kd by FACS (FIG. 10B). […] This screen positively identified mimotope clones with varying affinities to FMC63 which may be used for a tailored vaccine approach.

The next assay deals with FMC63 CAR T cells. As to the kind of experiment: Long-term in vivo boosting, CAR T expansion in peripheral blood. To be noted: day 13; vaccinations day 2 and day 9 with 25 μg cyclic-di-GMP; lymphodepleted mice; vs control mice. The source says: FIG. 19A depicts a timeline for administration of CD45.1+ donor FMC63 CAR T cells to CD45.2+ recipient mice on Day 1 following lymphodepletion on day 0. The mice were further administered a first dose of amph-mimotope or bivalent amph-mimotope on Day 2 and a second dose on Day 9. Peripheral blood was obtained from the mice on Day 13 and expansion of CD45.1+ CAR T cells were quantified by flow cytometry. FIG. 19B provides plots measuring the percentage of total T cells expressing CD45.1 and FMC63 CAR in peripheral blood isolated on day 13 from mice treated according to FIG. 19A. […] Control mice received no vaccination. […] Briefly, CD45.2^+ recipient mice received lymphodepeletion preconditioning (sublethal irradiation, 500cGy) on day 0. The mice were then administered 1×10^6 CD45.1^+ donor FMC63 CAR T cells on day 1, followed by two vaccinations on day 2 and day 9 using the following formulation: • (i) 10 ug of monovalent amph-mimotope (Amph-K-C2)+25 μg of cyclic-di-GMP in 1×PBS; or • (ii) 20 ug of amph-Bi-F12-mimotope (PEG4 or PEG8)+25 μg of cyclic-di-GMP in 1×PBS. Control mice received no vaccination. On day 13, peripheral blood was collected for analysis of CAR T expansion in response to amph-mimotope vaccine boosting by flow cytometry. CAR T cells were defined as CD45.1^+CAR^+ cells and were quantified as proportion of total CD8+ T cells.

Chain of FMC63 IgG (as listed by the source): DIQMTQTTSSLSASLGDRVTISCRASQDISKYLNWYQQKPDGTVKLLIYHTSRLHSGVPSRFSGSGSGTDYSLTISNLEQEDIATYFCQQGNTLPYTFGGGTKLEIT
Chain of FMC63 IgG (as listed by the source): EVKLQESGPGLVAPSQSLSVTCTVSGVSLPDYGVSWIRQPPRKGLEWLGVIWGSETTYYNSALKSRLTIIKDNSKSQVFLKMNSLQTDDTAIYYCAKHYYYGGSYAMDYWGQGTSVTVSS
Chain of FMC63 scFv (as listed by the source): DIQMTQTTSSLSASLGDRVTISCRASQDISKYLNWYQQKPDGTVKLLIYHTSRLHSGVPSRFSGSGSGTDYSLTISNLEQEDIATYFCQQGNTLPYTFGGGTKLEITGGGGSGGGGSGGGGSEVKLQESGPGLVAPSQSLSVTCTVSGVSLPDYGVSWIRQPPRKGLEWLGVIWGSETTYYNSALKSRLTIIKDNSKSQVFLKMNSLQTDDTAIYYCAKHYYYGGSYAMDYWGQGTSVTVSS

In the case of “D12 (RICPWSCRAP; Synthetic FMC63 Mimotope (D12)) [Clone D12]”, the Kd on FMC63 IgG and on FMC63 scFv was more than 1000 nM in each case.

In the case of “amph-bi-F12-peg8 (GGGSASRICPWNCKEL; not fully specified (C-terminus); cysteine pairing not given here; also: bivalent amphiphile conjugate via C-terminal PEG8 linker)”, the “expansion of CAR T cells (CD45.1+CAR+ of total CD8+ T cells) in peripheral blood” value in the assay on FMC63 CAR T cells is on record as “highest level of proliferation”.
